Experimental data: patent US8895695B2, “Template-fixed beta-hairpin peptidomimetics with CXCR4 antagonizing activity” (priority 2003, dated 2014)
Like-named read-outs stand apart in the source and are kept apart here. Bridge positions count the residues as written; N and C are the ends. Square brackets hold non-standard residues; d marks the D form. Peptide text beside a SMILES is read from it. * marks the point of attachment. Decanoyl(3,6,9-trioxa) = COCCOCCOCC(=O)*; 2Nal = N[C@@H](Cc1ccc2ccccc2c1)C(=O)O; Cit = NC(=O)NCCC[C@H](N)C(=O)O; Dab = NCC[C@H](N)C(=O)O; Dap = NC[C@H](N)C(=O)O

Experiments:
[1] = in vitro; conditions: human
[2] = biological target: CXCR4 (Homo sapiens, UniProt P61073); experiment: Ca2+-assay method 2 (Flexstation, SDF-1 induced calcium mobilization); format: cell-based; parameters: expressed in transfected cells; host or cells: mouse pre-B cell line 300-19; conditions: method 2 (Ex. 54-160), mouse pre-B cell line 300-19 with human CXCR4, 10 nM SDF-1
Chain of CXCR4 (P61073 whole entry): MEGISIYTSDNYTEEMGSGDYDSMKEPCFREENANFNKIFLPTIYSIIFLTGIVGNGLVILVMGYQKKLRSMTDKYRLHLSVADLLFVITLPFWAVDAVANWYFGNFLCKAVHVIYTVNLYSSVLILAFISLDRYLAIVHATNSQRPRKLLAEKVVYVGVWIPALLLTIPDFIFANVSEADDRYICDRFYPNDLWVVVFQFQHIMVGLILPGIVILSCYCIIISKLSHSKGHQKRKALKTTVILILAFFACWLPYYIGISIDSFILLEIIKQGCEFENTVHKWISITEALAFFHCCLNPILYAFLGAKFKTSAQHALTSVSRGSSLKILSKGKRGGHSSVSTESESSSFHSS
Description: 2.2. Ca^2+-Assay: CXCR4-Antagonizing Activity of the Peptides.
The cells were batch loaded with the Calcium 3 Assay kit (Molecular Devices) in assay buffer (Hanks Balanced salt solution, HBSS, 20 mM HEPES, pH 7.4, 0.1% BSA) for 1 h at room temperature and then 200,000 labeled cells were dispensed into black 96 well assays plates (Costar No. 3603). A 20-fold concentrated solution of peptide in assay buffer was added to the cells and the whole plate was centrifuged to settle the cells to the bottom of the wells. Calcium mobilization induced by 10 nM stromal-derived factor-1 (SDF-1) was measured in the Flexstation 384 (excitation, 485 nM; emission, 525 nM) for 90 seconds. A maximal change in fluorescence response above baseline was used to calculate antagonist activity. The data for dose response curves (antagonist concentration versus % maximum response) were fitted to a four parameter logistic equation using SoftmaxPro 4.6 (Molecular Devices), from which IC50% values were calculated.

[3] = tested on: human red blood cells (hRBC); experiment: Hemolysis; format: cell-based
Description: The peptides were tested for their hemolytic activity against human red blood cells (hRBC). Fresh hRBC were washed three times with phosphate buffered saline (PBS) by centrifugation for 10 min at 2000×g. Peptides at a concentration of 100 μM were incubated with 20% v/v hRBC for 1 hour at 37° C. The final erythrocyte concentration was approximately 0.9×10^9 cells per ml. A value of 0% resp. 100% cell lysis was determined by incubation of the hRBC in the presence of PBS alone and respectively 0.1% Triton X-100 in H2O. The samples were centrifuged and the supernatant was 20-fold diluted in PBS buffer and the optical density (OD) of the sample at […] was measured. The 100% lyses value (OD540H2O) gave an OD540 of approximately 1.3-1.8. Percent hemolysis was calculated as follows: (OD540peptide/OD540H2O)×100%.

[4] = read-out: IC50 (nM) Ca^2+ assay
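For GI50 in this document: MTT reduction read as absorbance at 595 nm, blank-corrected and expressed as percent growth relative to the time-zero cell reading, triplicate wells per concentration.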

Row | SMILES | GI50 at 48 h [1] [nM] | IC50 [2, 4] [nM] | Hemolysis at 100 μM [3] [%] | IC50 ([2]; IC50 (nM) Ca^2+ assay) [nM]
1 | C[C@@H](O)[C@@H]1NC(=O)[C@H]2CCCN2C(=O)CNC(=O)[C@H](CCCNC(=N)N)NC(=O)[C@@H]2CSSC[C@H](NC(=O)[C@H](Cc3ccc4ccccc4c3)NC(=O)[C@H](CCCNC(=N)N)NC1=O)C(=O)N[C@@H](Cc1ccc(O)cc1)C(=O)N[C@@H](CCC(N)=O)C(=O)N[C@@H](CCCCN)C(=O)N1CCC[C@@H]1C(=O)N1CCC[C@H]1C(=O)N[C@@H](Cc1ccc(O)cc1)C(=O)N[C@@H](CCCNC(=N)N)C(=O)N[C@@H](CCCNC(N)=O)C(=O)N2 [Ex. 56] (cyclo(YR[Cit]CRG[dP]TR[2Nal]CYQK[dP]P); disulfide 4-11) | 60000 | 0.74 |  | 
2 | N=C(N)NCCC[C@@H]1NC(=O)[C@H](CCCNC(=N)N)NC(=O)[C@H]2CCCN2C(=O)CNC(=O)[C@H](CCN)NC(=O)[C@@H]2CSSC[C@H](NC(=O)[C@H](Cc3c[nH]c4ccccc34)NC1=O)C(=O)N[C@@H](Cc1ccc(O)cc1)C(=O)N[C@@H](CCC(N)=O)C(=O)N[C@@H](CCCCN)C(=O)N1CCC[C@@H]1C(=O)N1CCC[C@H]1C(=O)N[C@@H](Cc1ccc(O)cc1)C(=O)N[C@@H](CCCNC(=N)N)C(=O)N[C@@H](CCCNC(N)=O)C(=O)N2 [Ex. 111] (cyclo(YR[Cit]C[Dab]G[dP]RRWCYQK[dP]P); disulfide 4-11) | > 100000 |  | 0 | 
3 | N=C(N)NCCC[C@@H]1NC(=O)[C@@H]2CSSC[C@H](NC(=O)[C@H](Cc3ccc4ccccc4c3)NC(=O)[C@H](CCCNC(=N)N)NC(=O)[C@H](CCCNC(=N)N)NC(=O)[C@H]3CCCN3C(=O)CNC1=O)C(=O)N[C@@H](Cc1ccc(O)cc1)C(=O)N[C@@H](CCC(N)=O)C(=O)N[C@@H](CCCCN)C(=O)N1CCC[C@@H]1C(=O)N1CCC[C@H]1C(=O)N[C@@H](Cc1ccc(O)cc1)C(=O)N[C@@H](CCCNC(=N)N)C(=O)N[C@@H](CCCNC(N)=O)C(=O)N2 [Ex. 115] (cyclo(RR[2Nal]CYQK[dP]PYR[Cit]CRG[dP]); disulfide 4-13) |  | 2.7 | 0.1 | 
4 | N=C(N)NCCC[C@@H]1NC(=O)[C@@H]2CSSC[C@H](NC(=O)[C@H](Cc3c[nH]c4ccccc34)NC(=O)[C@H](CCCNC(=N)N)NC(=O)[C@H](CCCNC(=N)N)NC(=O)[C@H]3CCCN3C(=O)CNC1=O)C(=O)N[C@@H](Cc1ccc(O)cc1)C(=O)N[C@@H](CCCNC(N)=O)C(=O)N[C@@H](CCCCN)C(=O)N1CCC[C@@H]1C(=O)N1CCC[C@H]1C(=O)N[C@@H](Cc1ccc(O)cc1)C(=O)N[C@@H](CCCNC(=N)N)C(=O)N[C@@H](CCCNC(N)=O)C(=O)N2 [Ex. 128] (cyclo(YR[Cit]CRG[dP]RRWCY[Cit]K[dP]P); disulfide 4-11) |  | 4.5 |  | 
5 | N=C(N)NCCC[C@@H]1NC(=O)[C@@H]2CSSC[C@H](NC(=O)[C@H](Cc3ccc4ccccc4c3)NC(=O)[C@H](CCCNC(=N)N)NC(=O)[C@H](CCCNC(=N)N)NC(=O)[C@H]3CCCN3C(=O)CNC1=O)C(=O)N[C@@H](Cc1ccc(O)cc1)C(=O)N[C@@H](CCC(N)=O)C(=O)N[C@@H](CCCCN)C(=O)N1CCC[C@@H]1C(=O)N1CCC[C@H]1C(=O)N[C@@H](Cc1ccc(O)cc1)C(=O)N[C@@H](CCCNC(=N)N)C(=O)N[C@@H](CCCNC(N)=O)C(=O)N2 [Ex. 132] (cyclo(RR[2Nal]CYQK[dP]PYR[Cit]CRG[dP]); disulfide 4-13) | 76000 |  | 0 | 
6 | N=C(N)NCCC[C@@H]1NC(=O)[C@@H]2CSSC[C@H](NC(=O)[C@H](Cc3ccc4ccccc4c3)NC(=O)[C@H](CCCNC(=N)N)NC(=O)[C@H](CN)NC(=O)[C@H]3CCCN3C(=O)CNC1=O)C(=O)N[C@@H](Cc1ccc(O)cc1)C(=O)N[C@@H](CCCNC(N)=O)C(=O)N[C@@H](CCCCN)C(=O)N1CCC[C@@H]1C(=O)N1CCC[C@H]1C(=O)N[C@@H](Cc1ccc(O)cc1)C(=O)N[C@@H](CCCNC(=N)N)C(=O)N[C@@H](CCCNC(N)=O)C(=O)N2 [Ex. 135] (cyclo(YR[Cit]CRG[dP][Dap]R[2Nal]CY[Cit]K[dP]P); disulfide 4-11) | 30000 |  | 0.1 | 
7 | COCCOCCOCC(=O)NCC[C@@H]1NC(=O)[C@H]2CCCN2C(=O)CNC(=O)[C@H](CCCNC(=N)N)NC(=O)[C@@H]2CSSC[C@H](NC(=O)[C@H](Cc3c[nH]c4ccccc34)NC(=O)[C@H](CCCNC(=N)N)NC1=O)C(=O)N[C@@H](Cc1ccc(O)cc1)C(=O)N[C@@H](CCCNC(N)=O)C(=O)N[C@@H](CCCCN)C(=O)N1CCC[C@@H]1C(=O)N1CCC[C@H]1C(=O)N[C@@H](Cc1ccc(O)cc1)C(=O)N[C@@H](CCCNC(=N)N)C(=O)N[C@@H](CCCNC(N)=O)C(=O)N2 [Ex. 142] (cyclo(YR[Cit]CRG[dP][Dab](Decanoyl(3,6,9-trioxa))RWCY[Cit]K[dP]P); disulfide 4-11) |  |  |  | 96.9
8 | C[C@@H]1NC(=O)[C@H](CCCNC(=N)N)NC(=O)[C@@H]2CSSC[C@H](NC(=O)[C@H](Cc3c[nH]c4ccccc34)NC(=O)[C@H](CCCNC(=N)N)NC(=O)[C@H](CCCNC(=N)N)NC(=O)[C@H]3CCCN3C1=O)C(=O)N[C@@H](Cc1ccc(O)cc1)C(=O)N[C@@H](CCCNC(N)=O)C(=O)N[C@@H](CCCCN)C(=O)N1CCC[C@@H]1C(=O)N1CCC[C@H]1C(=O)N[C@@H](Cc1ccc(O)cc1)C(=O)N[C@@H](CCCNC(=N)N)C(=O)N[C@@H](CCCNC(N)=O)C(=O)N2 [Ex. 143] (cyclo(YR[Cit]CRA[dP]RRWCY[Cit]K[dP]P); disulfide 4-11) | 46000 | 0.9 |  | 
9 | CC(C)C[C@@H]1NC(=O)[C@@H]2CCCN2C(=O)[C@H]2CCCN2C(=O)[C@H](CCCCN)NC(=O)[C@H](CCC(N)=O)NC(=O)[C@H](Cc2ccc(O)cc2)NC(=O)[C@@H]2CSSC[C@H](NC(=O)[C@H](CCCNC(N)=O)NC(=O)[C@H](CCCNC(=N)N)NC1=O)C(=O)N[C@@H](CCCNC(=N)N)C(=O)NCC(=O)N1CCC[C@@H]1C(=O)N[C@@H](CCCNC(=N)N)C(=O)N[C@@H](CCCNC(=N)N)C(=O)N[C@@H](Cc1ccc3ccccc3c1)C(=O)N2 [Ex. 144] (cyclo(LR[Cit]CRG[dP]RR[2Nal]CYQK[dP]P); disulfide 4-11) |  | 0.18 |  | 
10 | C[C@@H](O)[C@@H]1NC(=O)[C@H](CCCNC(=N)N)NC(=O)[C@H](Cc2ccc(O)cc2)NC(=O)[C@@H]2CCCN2C(=O)[C@H]2CCCN2C(=O)[C@H](CCCCN)NC(=O)[C@H](CCCNC(N)=O)NC(=O)[C@H](Cc2ccc(O)cc2)NC(=O)[C@@H]2CSSC[C@H](NC1=O)C(=O)N[C@@H](CCCNC(=N)N)C(=O)NCC(=O)N1CCC[C@@H]1C(=O)N[C@@H](CCCNC(=N)N)C(=O)N[C@@H](CCCNC(=N)N)C(=O)N[C@@H](Cc1ccc(O)cc1)C(=O)N2 [Ex. 146] (cyclo(YRTCRG[dP]RRYCY[Cit]K[dP]P); disulfide 4-11) |  | 0.24 |  | 
11 | N=C(N)NCCC[C@@H]1NC(=O)[C@@H]2CSSC[C@H](NC(=O)[C@H](Cc3ccc4ccccc4c3)NC(=O)[C@H](CCCNC(=N)N)NC(=O)[C@H](CCCNC(=N)N)NC(=O)[C@H]3CCCN3C(=O)CNC1=O)C(=O)N[C@@H](Cc1ccc(O)cc1)C(=O)N[C@@H](CCCNC(N)=O)C(=O)N[C@@H](CCCCN)C(=O)N[C@H]1CSSC[C@H](NC(=O)[C@H](Cc3ccc(O)cc3)NC(=O)CNC(=O)[C@H](CCCCN)NC(=O)[C@H](Cc3ccc(O)cc3)NC1=O)C(=O)N[C@@H](Cc1ccc(O)cc1)C(=O)N[C@@H](CCCNC(=N)N)C(=O)N[C@@H](CCCNC(N)=O)C(=O)N2 [Ex. 154] (cyclo([2Nal]CY[Cit]KCYKGYCYR[Cit]CRG[dP]RR); disulfide 2-15, 6-11) |  |  |  | 9.3
12 | N=C(N)NCCC[C@@H]1NC(=O)[C@@H]2CSSC[C@H](NC(=O)[C@H](Cc3c[nH]c4ccccc34)NC(=O)[C@H](CCCNC(=N)N)NC(=O)[C@H](CCCNC(=N)N)NC(=O)[C@H]3CCCN3C(=O)CNC1=O)C(=O)N[C@@H](Cc1ccc(O)cc1)C(=O)N[C@@H](CCC(N)=O)C(=O)N[C@@H](CCCCN)C(=O)N[C@H]1CSSC[C@H](NC(=O)[C@H](Cc3ccc(O)cc3)NC(=O)CNC(=O)[C@H](CCCCN)NC(=O)[C@H](Cc3ccc(O)cc3)NC1=O)C(=O)N[C@@H](Cc1ccc(O)cc1)C(=O)N[C@@H](CCCNC(=N)N)C(=O)N[C@@H](CCCNC(N)=O)C(=O)N2 [Ex. 155] (cyclo(CRG[dP]RRWCYQKCYKGYCYR[Cit]); disulfide 1-8, 12-17) |  |  |  | 0.46
13 | N=C(N)NCCC[C@@H]1NC(=O)[C@@H]2CSSC[C@H](NC(=O)[C@H](Cc3c[nH]c4ccccc34)NC(=O)[C@H](CCCNC(=N)N)NC(=O)[C@H](CCCNC(=N)N)NC(=O)[C@H]3CCCN3C(=O)CNC1=O)C(=O)N[C@@H](Cc1ccc(O)cc1)C(=O)N[C@@H](CCCNC(=N)N)C(=O)N[C@@H](CCCCN)C(=O)N[C@H]1CSSC[C@H](NC(=O)[C@H](Cc3ccc(O)cc3)NC(=O)CNC(=O)[C@H](CCCCN)NC(=O)[C@H](Cc3ccc(O)cc3)NC1=O)C(=O)N[C@@H](Cc1ccc(O)cc1)C(=O)N[C@@H](CCCNC(=N)N)C(=O)N[C@@H](CCCCN)C(=O)N2 [Ex. 160] (cyclo(CRG[dP]RRWCYRKCYKGYCYRK); disulfide 1-8, 12-17) |  |  |  | 0.38
